In patent US4634692A, “Synthesis of 1α,25-dihydroxy-24R-fluorocholecalciferol and 1α,25-dihydroxy-24S-fluorocholecalciferol” (Hoffmann-La Roche Inc., priority 1984, dated 1987):
Values joined by “and” are separate entries in the source; they are usually repeats but may differ in a detail not shown here. Identical values can stand only once. “Also recorded” adds a separate entry of the source. Like-named read-outs stand apart in the source and are kept apart here.

How the values were obtained:
[1] = test system: EHDP-Induced Mineralization Block; assay: Prevention of EHDP-induced mineralization block in rats (tibial epiphyseal plate width); format: in vivo, rat (Charles River CD male); conditions: 10 days; for Mean tibial epiphyseal plate width: with EHDP
Description: Charles River CD male rats are treated for 10 consecutive days. Rats are 21 days of age at the start of treatment. Ethane-1-hydroxy-1,1-diphosphonate (EHDP) is given subcutaneously on each treatment day at a dose of 3 mg/0.2 ml/rat in distilled water. Test compounds are administered orally on each treatment day in propylene glycol (0.2 ml/rat). Rats are autopsied on the day after the last treatment day and tibias are processed by a modified von Kossa procedure based upon silver impregnation of bone salts. Epiphyseal plate widths are measured with a micrometer ocular using standard microscopic magnification (35×). Activity is based upon dose-dependent narrowing of the widened epiphyseal plate induced by EHDP. Ten rats are used in each treatment group. Positive (EHDP alone) and negative (vehicles alone) control groups of ten rats each are included in each experiment.

[2] = Pharmacokinetics in dogs, plasma half-life after intravenous administration; conditions: dog, in vivo, 0.0003 mg/kg
Description: The plasma level profiles of 1α,25-dihydroxy-24R-fluorocholecalciferol and 1α,25-dihydroxycholecalciferol are compared in the dog after a single intraveneous dose. Each compound is studied in four dogs with a two-week "washout" period between compounds. The compounds are administered intravenously as solutions (2.5 mg/ml) in propylene glycol at a dose level of 0.3 μg/kg. At selected time points 5 ml of heparinized blood are collected, placed in ice and centrifuged in the cold. Plasma is separated and frozen immediately.
Plasma concentrations are determined by procedures routinely employed for the measurements of circulating levels of 1α,25-dihydroxycholecalciferol.

[3] = test system: vitamin D-deficient chicks; assay: Anti-rachitogenic activity in chicks (tibia ash weight); format: in vivo, chick (White Leghorn cockerels); conditions: for Mean tibia ash weight ± S.E.: 21 days oral dosing, 9-10 chicks per group, vehicle 120.9 ± 8.3
Description: One-day-old White Leghorn cockerels are placed on a vitamin D-deficient diet which contains 1% calcium and 0.7% phosphorous and are housed under ultraviolet-free lighting (General Electric F40G0 gold fluorescent lights). Compounds are dissolved in propylene glycol and administered orally in a volume of 0.2 ml for 21 consecutive days to chicks which are one to two days of age at the start of treatment. Controls are treated with vehicle alone. Compounds are prepared in amber flasks and the solutions are flushed with argon and refrigerated after each dosing period. Chicks are autopsied on the day after the last treatment day. Blood is collected for determination of serum calcium and phosphorus and tibia dry weight and ash weight are determined. Usually, ten chicks are used for each treatment group and for the control group. The results of the 1α,25-dihydroxy-24R-fluorocholecalciferol anti-rachitogenic activity assay are shown in Table I along with comparative data showing the anti-rachiotogenic activity of 24,24-difluoro 1α,25-dihydroxycholecalciferol.

[4] = test system: intestinal calcium absorption; assay: Intestinal calcium absorption in vitamin D-deficient chicks (serum 45Ca); format: in vivo, chick (Leghorn cockerels)
Description: While Leghorn one-day-old cockerels are placed on a vitamin D-deficient diet and are housed under ultraviolet-free lighting for 21 days. Chicks are then used to determine the effects of test compounds on intestinal calcium absorption. A single oral dose of test compound dissolved in propylene glycol is administered. At various times after dosing, 2 uCi of ^45 Ca (chloride) is given orally, and serum radioactivity is measured 45 minutes after administration of the isotope. Ten chicks are used in each treatment and control group and vehicle-treated controls are included at each time period.

[5] = 2.5 picomoles/rat/day p.o., vehicles 447, EHDP alone 1502
[6] = 7.5 picomoles/rat/day p.o., vehicles 416, EHDP alone 1390
[7] = 25 picomoles/rat/day p.o., vehicles 435, EHDP alone 1684
[8] = 75 picomoles/rat/day p.o., vehicles 448, EHDP alone 1332
[9] = 250 picomoles/rat/day p.o., vehicles 428, EHDP alone 1385

C=C1/C(=C\C=C2/CCC[C@]3(C)[C@@H]([C@H](C)CCCC(C)(C)O)CC[C@@H]23)C[C@@H](O)C[C@@H]1O [1α,25-dihydroxycholecalciferol]
Mean tibial epiphyseal plate width [1, 5]: 1365 Micra | Mean tibial epiphyseal plate width [1, 6]: 1240 Micra | Mean tibial epiphyseal plate width [1, 7]: 1103 Micra | Mean tibial epiphyseal plate width [1, 8]: 922 Micra | Mean tibial epiphyseal plate width [1, 9]: 839 Micra | half-life ([2]; 0.3 mcg/kg, i.v., dogs, read-out: Plasma half-life (converted)): 3.6 h

C=C1/C(=C\C=C2/CCC[C@]3(C)[C@@H]([C@H](C)CCC(F)(F)C(C)(C)O)CC[C@@H]23)C[C@@H](O)C[C@@H]1O [24,24-difluoro 1α,25-dihydroxycholecalciferol, reference compound]
Mean tibia ash weight ± S.E. ([3]; 3 ng/chick/day): 192.2 ± 6.2 mg | Mean tibia ash weight ± S.E. ([3]; 10 ng/chick/day): 258.6 ± 10.0 mg | Mean tibia ash weight ± S.E. ([3]; 30 ng/chick/day): 229.8 ± 14.2 mg

CC(O)(P(=O)(O)O)P(=O)(O)O [EHDP, Ethane-1-hydroxy-1,1-diphosphonate]
Mean tibial epiphyseal plate width, EHDP alone (positive control) ([1]; EHDP 3 mg/0.2 ml/rat s.c., control groups of the 2.5, 7.5, 25, 75, 250 pmol): 1502 Micra and 1390 Micra and 1684 Micra and 1332 Micra and 1385 Micra

C=C1/C(=C\C=C2/CCC[C@]3(C)[C@@H]([C@H](C)CC[C@@H](F)C(C)(C)O)CC[C@@H]23)C[C@@H](O)C[C@@H]1O [[1α,3β,5Z,7E,24R]-24-fluoro-9,10-secocholesta-5,7,10(19)-trien-1,3,25-triol]
Mean tibia ash weight ± S.E. ([3]; 3 ng/chick/day): 293.3 ± 4.8 mg | Mean tibia ash weight ± S.E. ([3]; 10 ng/chick/day): 330.4 ± 7.7 mg | Mean tibia ash weight ± S.E. ([3]; 30 ng/chick/day): 337.9 ± 10.6 mg | Anti-rachitogenic activity (in words) ([3]; oral, 21 consecutive days): has shown activity in the anti-rachitogenic test in chicks; also recorded: possesses potent anti-rachitogenic activity | Serum 45Ca ([4]; 24 hr after single oral dose, vehicle 408 ± 30, *** statistically significant): 793 ± 73 CPM/0.2 ML | Serum 45Ca ([4]; 48 hr after single oral dose, vehicle 439 ± 30, not statistically significant): 520 ± 38 CPM/0.2 ML | Serum 45Ca ([4]; 72 hr after single oral dose, vehicle 398 ± 31, not statistically significant): 372 ± 39 CPM/0.2 ML | Duration of activity in stimulation of intestinal calcium absorption versus 1α,25-dihydroxycholecalciferol (in words) ([4]; single oral 100 nanogram dose): comparable to that of 1α,25-dihydroxycholecalciferol | Mean tibial epiphyseal plate width [1, 5]: 1302 Micra | Mean tibial epiphyseal plate width [1, 6]: 1031 Micra | Mean tibial epiphyseal plate width [1, 7]: 1040 Micra | Mean tibial epiphyseal plate width [1, 8]: 864 Micra | Mean tibial epiphyseal plate width [1, 9]: 783 Micra | Prevention of EHDP-induced mineralization block (in words) ([1]; oral, rats): has shown activity in the test for the prevention of EHDP-Induced Mineralization Block in rats; also recorded: narrows the widening of the epiphyseal plate induced by EHDP | half-life [2]: 14.4 h
